The values that follow come from PubChem BioAssay (NCI).

Some test systems named below: NCI-H23 lung; SK-OV-3 ovarian; UACC-257 melanoma; HT29 colon; DU-145 prostate; SK-MEL-28 melanoma; T-47D breast; HCT-116 colon; MCF7 breast; SNB-75 CNS.
What all share (test): growth of human tumour cells (NCI), 48 h

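Growth conditions: 96-well plates. Treatment: test compound, 48 hours, 5 concentrations. Analysis: linear interpolation between bracketing concentrations; unreached endpoints set to highest concentration. The concentration for full growth arrest is given as TGI.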 Where a SMILES comes first, the peptide text is derived from it. [ ]: non-standard residue; d: D form. The star is where a group is joined. Phe(4-NO2) = N[CH](Cc1ccc([N+](=O)[O-])cc1)C(=O)O; Boc = CC(C)(C)OC(=O)*; OBn = c1ccc(CO*)cc1

Consider `CCC1C(=O)C[C@H]2[C@@H]3C(O)CC4=CC(=O)CC[C@]4(C)[C@H]3CC[C@]12C` (stereo not given in full), for which the TGI with NCI-H23 lung, in the test on SK-OV-3 ovarian, with UACC-257 melanoma, with HT29 colon, with DU-145 prostate and with SK-MEL-28 melanoma was > 50 µM in each case. Besides, the TGI with T-47D breast, in the test with HCT-116 colon, with MCF7 breast and in the test with SNB-75 CNS was > 50 µM each time.

For `c1ccc(CNc2c3c(nc4ccccc24)CCC3)cc1`, the TGI in the test with NCI-H23 lung was 46.2 µM; in the test on SK-OV-3 ovarian, 36.2 µM; in the test on UACC-257 melanoma, 29.3 µM; in the test on HT29 colon it was 50.1 µM; with DU-145 prostate, 62.5 µM; in the test with SK-MEL-28 melanoma it was 24.3 µM. For the same compound, the TGI in the test with T-47D breast stood at 38.7 µM; with HCT-116 colon it was 24.9 µM; in the test with MCF7 breast it was 30.9 µM; in the test on SNB-75 CNS it was 43.5 µM.

With `CN(C)c1ccc(/C=N/Nc2nc3ccccc3c(=O)n2-c2ccccc2)cc1`, the TGI in the test with NCI-H23 lung, with SK-OV-3 ovarian, with UACC-257 melanoma, in the test with HT29 colon, with DU-145 prostate and in the test on SK-MEL-28 melanoma was > 100 µM throughout. For the same compound, the TGI is > 100 µM in the test with T-47D breast, > 100 µM in the test with HCT-116 colon, > 100 µM in the test on MCF7 breast and 57.5 µM with SNB-75 CNS.

Regarding `CCOC(C[Se]CC(OCC)OCC)OCC`, the TGI in the test on NCI-H23 lung is > 100 µM; with SK-OV-3 ovarian it was > 100 µM; in the test on UACC-257 melanoma, > 100 µM; with HT29 colon, > 100 µM; in the test on DU-145 prostate, 85.7 µM; in the test on SK-MEL-28 melanoma it was > 100 µM. For the same compound, the TGI is > 100 µM in the test with T-47D breast, > 100 µM in the test on HCT-116 colon, > 100 µM with MCF7 breast and 38.8 µM in the test with SNB-75 CNS.

For `O=C(Nc1sccc1S(=O)(=O)c1ccccc1)c1cccnc1`, the TGI was > 80.2 µM in the test with NCI-H23 lung; > 89.1 µM with SK-OV-3 ovarian; > 100 µM in the test on UACC-257 melanoma; > 100 µM in the test on HT29 colon; > 100 µM in the test on DU-145 prostate; > 100 µM in the test on SK-MEL-28 melanoma. Moreover, the TGI in the test with T-47D breast was > 100 µM; in the test with HCT-116 colon, > 100 µM; in the test on MCF7 breast, > 100 µM; in the test on SNB-75 CNS, > 91 µM.

Regarding `COc1ccc2nc3cc(Cl)ccc3c(NCCCCCC(=O)NC(COc3cnc4c(ccc5cccnc54)c3)COc3cnc4c(ccc5cccnc54)c3)c2c1`, the TGI in the test on NCI-H23 lung is > 100 µM; with SK-OV-3 ovarian, > 100 µM; in the test with UACC-257 melanoma it was 31.4 µM; in the test with HT29 colon, > 100 µM; with DU-145 prostate, 23.4 µM; in the test with SK-MEL-28 melanoma, > 100 µM. In addition, the TGI worked out at 28.6 µM in the test with T-47D breast, 14.9 µM in the test with HCT-116 colon, 17.7 µM in the test on MCF7 breast and 4.78 µM in the test with SNB-75 CNS.

Regarding `COc1ccc(N[C@H](CS(=O)c2ccc(C)cc2)c2ccc(F)cc2)cc1` (stereo not given in full), the TGI in the test with NCI-H23 lung, with SK-OV-3 ovarian, in the test with UACC-257 melanoma, in the test on HT29 colon, in the test on DU-145 prostate and with SK-MEL-28 melanoma was > 100 µM each time. In addition, the TGI in the test on T-47D breast is > 100 µM; in the test with HCT-116 colon it was > 100 µM; in the test with MCF7 breast, > 100 µM; in the test with SNB-75 CNS it was 81.7 µM.

For the compound `Oc1ccc(/C=C\c2nnc(/C=C\c3ccc(O)c(O)c3)s2)cc1O`, the TGI was 17.7 µM in the test with NCI-H23 lung; 26.5 µM with SK-OV-3 ovarian; 35.7 µM in the test with UACC-257 melanoma; > 75.8 µM in the test with HT29 colon; 18.8 µM in the test with DU-145 prostate; 25.2 µM in the test with SK-MEL-28 melanoma. Moreover, the TGI in the test on T-47D breast is 5.37 µM; in the test with HCT-116 colon it was 13 µM; in the test with MCF7 breast, 12.8 µM; in the test on SNB-75 CNS, 15.3 µM.

For the compound `COC(=O)Cc1ccc2c(c1)Sc1ccc(CC(=O)OC)cc1N2C`, the TGI was > 77.9 µM with NCI-H23 lung; > 100 µM with SK-OV-3 ovarian; > 93 µM with UACC-257 melanoma; > 100 µM in the test on HT29 colon; > 100 µM in the test with DU-145 prostate; > 100 µM in the test on SK-MEL-28 melanoma. Besides, the TGI is > 100 µM in the test on T-47D breast, > 100 µM in the test with HCT-116 colon, > 63.5 µM in the test on MCF7 breast and > 93.4 µM with SNB-75 CNS.

Take `O=C(NCCN(CCNC(=O)c1cccc(=O)n1O)CCN(CCNC(=O)c1cccc(=O)n1O)CCNC(=O)c1cccc(=O)n1O)c1cccc(=O)n1O`: the TGI in the test on NCI-H23 lung, in the test with SK-OV-3 ovarian, with UACC-257 melanoma, in the test on HT29 colon, with DU-145 prostate and in the test with SK-MEL-28 melanoma was > 100 µM each time. The TGI with T-47D breast, with HCT-116 colon, in the test on MCF7 breast and in the test with SNB-75 CNS was > 100 µM in each case.

Consider `N=C(N)SCCON1C(=O)c2ccccc2C1=O`, for which the TGI in the test on NCI-H23 lung, in the test on SK-OV-3 ovarian, in the test on UACC-257 melanoma, with HT29 colon, with DU-145 prostate and in the test with SK-MEL-28 melanoma was > 100 µM throughout. In addition, the TGI in the test on T-47D breast, in the test with HCT-116 colon, with MCF7 breast and in the test on SNB-75 CNS was > 100 µM throughout.

Regarding `COc1ccc(N2C=Nn3c(nc4sc(C)c(C)c4c3=O)C2)cc1`, the TGI in the test with NCI-H23 lung, in the test on SK-OV-3 ovarian, with UACC-257 melanoma, with HT29 colon, in the test with DU-145 prostate and with SK-MEL-28 melanoma was > 100 µM throughout. For the same compound, the TGI in the test on T-47D breast, in the test on HCT-116 colon, in the test on MCF7 breast and with SNB-75 CNS was > 100 µM each time.

In the case of `COC(=O)CCC(NC(=O)OC(C)(C)C)C(=O)NC(Cc1ccc([N+](=O)[O-])cc1)C(=O)NCC(=O)OCc1ccccc1` (stereo not given) (Boc-Glu(OMe)-[Phe(4-NO2)]-Gly-OBn; configuration not given here), the TGI in the test on NCI-H23 lung, in the test with SK-OV-3 ovarian, with UACC-257 melanoma, in the test with HT29 colon, with DU-145 prostate and in the test on SK-MEL-28 melanoma was > 100 µM each time. For the same compound, the TGI with T-47D breast was > 100 µM; in the test with HCT-116 colon it was > 100 µM; in the test on MCF7 breast it was > 100 µM; in the test on SNB-75 CNS, 48.4 µM.
